Values after ≈ are worked out from the molar mass of the structure shown.
Assays:
Experiment in all cases: Antifungal susceptibility testing (minimum inhibitory concentration), soyabean casein digest broth
Type in all cases: cell-based
A. niger = conditions: Aspergillus niger; end points after 48 hours, visually / spectrophotometer; NI till x = no inhibition up to x; read-out: Activity against organisms In μg/ml, A. niger (minimum inhibitory concentration)
Description: (§1) In vitro evaluation of antifungal activity can be performed by determining the minimum inhibitory concentration. Anti-fungal susceptibility testing of these anti-fungal compounds was done by conventional method using soyabean casein digest broth. Known anti-fungal agents like Fluconazole and amphotericin-B were used as positive control. End points were determined after 48 hours visually and by using Spectrophotometer wherever necessary. Different dilutions were tried and the set of experiments.

C. albicans = conditions: Candida albicans; end points after 48 hours, visually / spectrophotometer; NI till x = no inhibition up to x; read-out: Activity against organisms In μg/ml, C. albicans (minimum inhibitory concentration)
Description: as §1

F. proliferatum = conditions: Fusarium proliferatum; end points after 48 hours, visually / spectrophotometer; NI till x = no inhibition up to x; read-out: Activity against organisms In μg/ml, F. proliferatum (minimum inhibitory concentration)
Description: as §1

MIC (A. niger): 1 µg/mL (≈ 2.71 µM)
MIC (C. albicans): 2 µg/mL (≈ 5.42 µM)
MIC (F. proliferatum): 2 µg/mL (≈ 5.42 µM)
SMILES: O=C1OC(COC(=O)c2ccsc2)C=C1c1ccc(Cl)c(Cl)c1 (stereo not drawn) [1EA, 4-(3,4-dichlorophenyl)-5-oxo-2,5-dihydrofuran-2-ylmethyl thiophene-3-carboxylate]

— US20070259948A1, “Compounds with antifungal properties and process thereof” (priority 2006, published 2007)
